Active and inactive are the calls of the source.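 The calls were made as follows: active = plate Z score at or below -3, or inhibition of at least 30% at 20 µM; inactive = the rest.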

This assay can be described thus: compounds lowering EGFP fluorescence in F442A cells, dose response, counter-screen for p/CIP destabilizer project (AID 2005).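 Also: cells express EGFP alone from a CMV promoter as a counter screen for p/CIP-EGFP.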 Particulars: F442A EGFP cells, EGFP fluorescence, 16 h, stronger effect = higher value. On the technique in general: A counterscreen serves to expose hits that act by an unwanted route or on another target.

With `CC(=O)c1ccc(OCc2cc(C(=O)NC3CCCCC3)no2)cc1`, the inhibition – broadly, the drop in the measured response relative to a control, in per cent – is 15.2% (EGFP decrease, at 10 µM) and 9.5% (inactive) (at 20 µM).

Consider `Cc1cccc(-c2nnc3n2N=C(c2ccccc2Br)CS3)c1`, for which the inhibition runs as follows: (EGFP decrease, at 10 µM) 18.2%; (at 20 µM) 10.8% (inactive).

Regarding `Cc1ccccc1Cn1c(C)nc2ccccc21`, the inhibition by setting is: (EGFP decrease, at 10 µM) 29.8%; (at 20 µM) 39%.

Take `COC(=O)CSc1[nH]c(=O)cc(C)c1C#N`: the inhibition (EGFP decrease, at 10 µM) worked out at 26.6% and the inhibition (at 20 µM) was 49.5%.

For `Cn1nc(-c2ccccn2)nc2c(=O)n(C)c(=O)nc1-2`, the inhibition reads like this: (EGFP decrease, at 10 µM) 61.5%; (at 20 µM) 45.6%.

Turning to `Cc1ccccc1NC(=O)C1CCCN(C(=O)Nc2ccc(F)cc2)C1` (stereo not drawn), the inhibition is, setting by setting: (EGFP decrease, at 10 µM) 12.3%; (at 20 µM) 3.2% (inactive).

As to `Cc1cc(C)n(-c2nc3c(c(=O)[nH]c(=O)n3C)n2CC(O)COc2ccccc2)n1` (stereo not drawn), the inhibition by setting is: (EGFP decrease, at 10 µM) -7.9%; (at 20 µM) 7.8% (inactive).

Take `Cc1ccc(-n2ncc(Br)c(Br)c2=O)cc1`: the inhibition by setting is: (EGFP decrease, at 10 µM) 9.4%; (at 20 µM) -1.3% (inactive).

For `CN(C(=O)c1ccc2c(c1)CCN2S(C)(=O)=O)c1ccccc1`, the inhibition is -5.5% (EGFP decrease, at 10 µM) and -19.7% (inactive) (at 20 µM).

As to `COc1cc(CNCCCO)ccc1OCC(=O)NC(C)(C)C`, the inhibition (EGFP decrease, at 10 µM) is -2.3% and the inhibition (at 20 µM) was 22.9% (inactive).

With `Cn1nnnc1SCC(=O)c1cccs1`, the inhibition (EGFP decrease, at 10 µM) stood at 11.4% and the inhibition (at 20 µM) was 9.9% (inactive).

Take `CCc1cc2c(NCCC(=O)O)nc(C)nc2s1`: the inhibition is 20.9% (EGFP decrease, at 10 µM) and 21% (inactive) (at 20 µM).

For `COc1cccc(-c2noc(-c3ccc(Cl)nc3)n2)c1`, the inhibition is -8.2% (EGFP decrease, at 10 µM) and -3.6% (inactive) (at 20 µM).

On to `CN=Cc1sc2ccccc2c1O`, for which the inhibition reads like this: (EGFP decrease, at 10 µM) 26.9%; (at 20 µM) 29.7% (inactive).

As for `Cn1c(O)c(C=NC2CCCCCC2)c(=O)[nH]c1=S`, the inhibition runs as follows: (EGFP decrease, at 10 µM) 0.3%; (at 20 µM) 7.6% (inactive).

`CC(=O)N1c2c(cc(Br)cc2S(=O)(=O)NCc2ccccc2)CC1C` (stereo not drawn): the inhibition reads like this: (EGFP decrease, at 10 µM) 26.4%; (at 20 µM) 20.8% (inactive).

As to `O=c1c2ccccc2[nH]c2ccccc12`, the inhibition by setting is: (EGFP decrease, at 10 µM) 13.8%; (at 20 µM) 18.3% (inactive).

Consider `CC(C)c1ccc(NC(=S)NN2C(C)CCCC2C)cc1` (stereo not drawn), for which the inhibition is, setting by setting: (EGFP decrease, at 10 µM) 8.5%; (at 20 µM) 0.8% (inactive).

Consider `CC(C)OP(=O)(O)NC(=O)c1ccccc1`, for which the inhibition runs as follows: (EGFP decrease, at 10 µM) 3.6%; (at 20 µM) 18.5% (inactive).

For the compound `COC(=O)CS(=O)(=O)c1cccc2cccnc12`, the inhibition is, setting by setting: (EGFP decrease, at 10 µM) 38.4%; (at 20 µM) 19.7% (inactive).

In the case of `CCCCC(=O)NC(c1ccccc1Cl)c1ccc2cccnc2c1O` (stereo not drawn), the inhibition runs as follows: (EGFP decrease, at 10 µM) 3.1%; (at 20 µM) -6.1% (inactive).

As for `COc1ccc(NC(=O)N2CCn3c2nc2ccccc23)cc1`, the inhibition runs as follows: (EGFP decrease, at 10 µM) 17.9%; (at 20 µM) 30.9%.

`CCC(=O)Nc1ccccc1Oc1ccccc1`: the inhibition was 12.2% (EGFP decrease, at 10 µM) and 19.7% (inactive) (at 20 µM).

For the compound `O=S(=O)(NCC1CCCN(Cc2ccccc2)C1)c1cccc2cccnc12` (stereo not drawn), the inhibition is 21.3% (EGFP decrease, at 10 µM) and 19.6% (inactive) (at 20 µM).

With `CCOC(=O)N1CCN(c2ccc(C(C)=O)cc2F)CC1`, the inhibition (EGFP decrease, at 10 µM) was found to be 10.1% and the inhibition (at 20 µM) is -6.2% (inactive).

In the case of `CCOC(=O)C(OC(=O)c1sc(=S)n(C)c1C)C(C)=O` (stereo not drawn), the inhibition by setting is: (EGFP decrease, at 10 µM) 27.1%; (at 20 µM) 35.7%.

As to `CC1CC(C)CN(C(=O)c2ccc3c(c2NCCO)C(=O)c2ccccc2C3=O)C1` (stereo not drawn), the inhibition runs as follows: (EGFP decrease, at 10 µM) 12.8%; (at 20 µM) 7.9% (inactive).

`CCCC(C)C1(CC)C(=O)NC(=Nc2ccc(F)cc2)NC1=O` (stereo not drawn): the inhibition (EGFP decrease, at 10 µM) was 37.5% and the inhibition (at 20 µM) is 27.3% (inactive).

For the compound `COCC(=O)N1CCCN(c2nc3c(C)cccc3cc2C#N)CC1`, the inhibition is 7.6% (EGFP decrease, at 10 µM) and -0.8% (inactive) (at 20 µM).

`C[C@@H](CN1C2=NC[C@H](Cc3ccc(O)cc3)N2C[C@H]1Cc1ccc(O)cc1)NC(=O)CCC1CCCCC1`: the inhibition runs as follows: (EGFP decrease, at 10 µM) 19.4%; (at 20 µM) 28.8% (inactive).

With `O=C(CN(CCc1ccccc1)C(=O)CNS(=O)(=O)c1ccccc1)NCC1CCCO1` (stereo not drawn), the inhibition is 25.6% (EGFP decrease, at 10 µM) and 23.8% (inactive) (at 20 µM).

`CC(=O)N1CCN(C(=O)CCCNC(=O)c2ccc(Cl)cc2)CC1`: the inhibition was 21% (EGFP decrease, at 10 µM) and -1.6% (inactive) (at 20 µM).

Regarding `CCNS(=O)(=O)c1ccc(OC)c(C(=O)NC2CCCCC2)c1`, the inhibition was 1.8% (EGFP decrease, at 10 µM) and 27.8% (inactive) (at 20 µM).

As for `Cc1nc(SCC(=O)Nc2cc(C)on2)c2c(=O)n(C)c(=O)n(C)c2n1`, the inhibition (EGFP decrease, at 10 µM) is 10% and the inhibition (at 20 µM) was 6.6% (inactive).

Take `CC(=O)c1ccc2c(c1)OCO2`: the inhibition was 5.1% (EGFP decrease, at 10 µM) and 25.1% (inactive) (at 20 µM).

Consider `CCc1ccc(NC(=S)N2CCC(NC(=O)c3ccccc3OC)CC2)cc1`, for which the inhibition (EGFP decrease, at 10 µM) was -7.8% and the inhibition (at 20 µM) is 5.4% (inactive).

Consider `CN(C)c1ccc(C(=O)Nc2cc(C(F)(F)F)ccc2-n2cncn2)cc1`, for which the inhibition is 5% (EGFP decrease, at 10 µM) and 10.4% (inactive) (at 20 µM).

Take `CCOC(=O)c1c(C)oc2c(F)c(F)c(F)c(F)c2c1=O`: the inhibition (EGFP decrease, at 10 µM) worked out at 32.1% and the inhibition (at 20 µM) was 19.8% (inactive).

As for `O=C(CSc1nnc(-c2ccccc2F)o1)OCc1ccccc1`, the inhibition is 15.7% (EGFP decrease, at 10 µM) and 39% (at 20 µM).

For the compound `CC1CCCCC1NC(=O)c1cn(C)c2ccc(S(=O)(=O)N3CCCC3)cc2c1=O` (stereo not drawn), the inhibition (EGFP decrease, at 10 µM) was found to be 12.3% and the inhibition (at 20 µM) is 6.4% (inactive).

Regarding `O=C(c1ccco1)N1CCN(C(=O)c2ccccc2[N+](=O)[O-])CC1`, the inhibition by setting is: (EGFP decrease, at 10 µM) 10.5%; (at 20 µM) 11.1% (inactive).

In the case of `C=CCCC(=O)N1CCCC(C(=O)c2cccc(OC)c2)C1` (stereo not drawn), the inhibition by setting is: (EGFP decrease, at 10 µM) 20.8%; (at 20 µM) 2.3% (inactive).

On to `C=CCn1c(SCCN2C(=O)c3ccccc3C2=O)nc2scc(-c3ccccc3)c2c1=O`, for which the inhibition (EGFP decrease, at 10 µM) was determined as 30.3% and the inhibition (at 20 µM) was 0.6% (inactive).

In the case of `Cc1nc2c(=O)n(C)c(=O)nc-2n(C)n1`, the inhibition (EGFP decrease, at 10 µM) stood at 54.2% and the inhibition (at 20 µM) was 34.4%.

With `CN1CCn2c1nc(N1CCCCC1)nc2=O`, the inhibition (EGFP decrease, at 10 µM) stood at 14.7% and the inhibition (at 20 µM) was 16.5% (inactive).

As to `CCNc1nc(C)c2cc(Br)c(=O)n(CC)c2n1`, the inhibition (EGFP decrease, at 10 µM) was determined as 18.2% and the inhibition (at 20 µM) is 4.8% (inactive).

In the case of `O=S(=O)(NCC1CCCO1)c1cccc(C(F)(F)F)c1` (stereo not drawn), the inhibition is 7.7% (EGFP decrease, at 10 µM) and 11.7% (inactive) (at 20 µM).

Regarding `CC(=O)c1cccc(OCc2cc(C(=O)N3CC4C[C@@H]5CC3C[C@H](C4)C5)no2)c1`, the inhibition runs as follows: (EGFP decrease, at 10 µM) 37.1%; (at 20 µM) 27% (inactive).

In the case of `Cc1ccccc1CC(=O)Nc1sc(C(C)C)cc1C(=O)N1CCOCC1`, the inhibition is, setting by setting: (EGFP decrease, at 10 µM) 4.2%; (at 20 µM) 14.3% (inactive).

Regarding `Cc1ccc(NC2=NC3(CCCCC3)N=C(N)N2)c(C)c1`, the inhibition reads like this: (EGFP decrease, at 10 µM) 32.9%; (at 20 µM) 41.8%.

As for `O=C(Nc1nc2nc(-c3ccccc3)cc(-c3ccccc3)n2n1)c1ccco1`, the inhibition is, setting by setting: (EGFP decrease, at 10 µM) 4.8%; (at 20 µM) 5.5% (inactive).

In the case of `C=CCN(c1ccccc1)S(=O)(=O)c1ccc(Cl)c(C(=O)OCC(=O)NCCCN2CCCC2=O)c1`, the inhibition is 16.8% (EGFP decrease, at 10 µM) and 14.2% (inactive) (at 20 µM).

As to `Cn1c(NCc2ccco2)nc2c1c(=O)n(Cc1ccc(Cl)cc1)c(=O)n2C`, the inhibition reads like this: (EGFP decrease, at 10 µM) 17.1%; (at 20 µM) 20.5% (inactive).

Take `Cc1ccc(-c2nnc(CSc3nc(C)nc4sc(C)c(C)c34)o2)cc1`: the inhibition by setting is: (EGFP decrease, at 10 µM) 12.1%; (at 20 µM) 14.3% (inactive).

On to `Cc1cc(N2C(=O)C(O)=C(C(=O)c3ccco3)C2c2ccc([N+](=O)[O-])cc2)no1` (stereo not drawn), for which the inhibition runs as follows: (EGFP decrease, at 10 µM) 39.5%; (at 20 µM) 4.5% (inactive).

For `CCN1CCN(Cc2ccc(NC(=O)c3cc(NC(=O)C4=NN(c5ccccc5)C(=O)C4)cc(OC)c3)cc2C(F)(F)F)CC1`, the inhibition (EGFP decrease, at 10 µM) worked out at 37.6% and the inhibition (at 20 µM) was 24.2% (inactive).

With `CS(=O)(=O)c1ccc(S(=O)CC(=O)OCc2ccccc2)c([N+](=O)[O-])c1` (stereo not drawn), the inhibition is 16% (EGFP decrease, at 10 µM) and -0.6% (inactive) (at 20 µM).

On to `Cc1c(NC(=O)C(C)OC(=O)/C=C/c2ccco2)c(=O)n(-c2ccccc2)n1C` (stereo not drawn), for which the inhibition (EGFP decrease, at 10 µM) was determined as 10.9% and the inhibition (at 20 µM) is -5.3% (inactive).

Turning to `COc1cccc2cc(C(C)=O)c(=O)oc12`, the inhibition reads like this: (EGFP decrease, at 10 µM) 33.2%; (at 20 µM) 24.2% (inactive).

Turning to `C[C@H]1CC[C@@H]2[C@@H](C)[C@H]3[C@H](C[C@H]4[C@@H]5CC=C6C[C@@H](O[C@@H]7O[C@H](CO)[C@H](O)[C@H](O[C@@H]8O[C@H](CO)[C@@H](O)[C@H](O)[C@H]8O)[C@H]7O[C@@H]7O[C@@H](C)[C@H](O)[C@@H](O)[C@H]7O)CC[C@]6(C)[C@H]5CC[C@]34C)N2C1`, the inhibition by setting is: (EGFP decrease, at 10 µM) 30.3%; (at 20 µM) -3% (inactive).

As for `Cc1cccc2cc(CN(Cc3ccc(F)cc3)Cc3nnnn3C3CCCC3)c(=O)[nH]c12`, the inhibition (EGFP decrease, at 10 µM) amounted to 13.4% and the inhibition (at 20 µM) was 6.5% (inactive).

Regarding `CCOC(=O)N1CCC(NC(=O)C2CCCN(S(=O)(=O)c3cccc4nsnc34)C2)CC1` (stereo not drawn), the inhibition by setting is: (EGFP decrease, at 10 µM) 11%; (at 20 µM) 19% (inactive).

Regarding `Cc1c(NC(=O)CSc2ncccn2)c(=O)n(-c2ccccc2)n1C`, the inhibition (EGFP decrease, at 10 µM) amounted to 15.5% and the inhibition (at 20 µM) is 17.7% (inactive).

On to `Cc1cc2nnc(SCC(=O)N3CCOCC3)n2c2ccccc12`, for which the inhibition by setting is: (EGFP decrease, at 10 µM) 26.4%; (at 20 µM) 17.9% (inactive).

For the origin of these results see PubChem BioAssay AID2005 (Sanford-Burnham Center for Chemical Genomics, 2009).
